Measurements as given in PubChem BioAssay AID2060500 (Molecular Pharmacology Branch, DTP, NCI, 2025).
pIC50: −log10 of the molar value. Blank lines part the entries; values can stand above or below the compound they belong to.

System: 596521-263-R-J1-PDC complex spheroids, viability % of control
Assay: Anticancer human tumor 596521-263-R-J1-PDC patient-derived soft tissue sarcoma cell line growth inhibition [GQUAD]
Conditions: for pIC50: curve of first compound; for viability, T/C: stronger effect = lower value
In short: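 Multi-cell-type spheroids of tumor cells with HUVEC and mesenchymal stem cells, treated with drug combinations. Concentrations descend in half-log steps from near clinical Cmax, or from 10 microM where Cmax is unknown; viability read-out.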

[1] = second compound 0.0316 µM, first compound 0.0316 µM
[2] = second compound 0.0316 µM, first compound 0.1 µM
[3] = second compound 0.0316 µM, first compound 0.316 µM
[4] = second compound 0.0316 µM, first compound 1 µM
[5] = second compound 0.0316 µM, first compound 3.16 µM
[6] = second compound 0.0316 µM, first compound 10 µM
[7] = second compound 0.1 µM, first compound 0.0316 µM
[8] = second compound 0.1 µM, first compound 0.1 µM
[9] = second compound 0.1 µM, first compound 0.316 µM
[10] = second compound 0.1 µM, first compound 1 µM
[11] = second compound 0.1 µM, first compound 3.16 µM
[12] = second compound 0.1 µM, first compound 10 µM
[13] = second compound 0.316 µM, first compound 0.0316 µM
[14] = second compound 0.316 µM, first compound 0.1 µM
[15] = second compound 0.316 µM, first compound 0.316 µM
[16] = second compound 0.316 µM, first compound 1 µM
[17] = second compound 0.316 µM, first compound 3.16 µM
[18] = second compound 0.316 µM, first compound 10 µM
[19] = second compound 1 µM, first compound 0.0316 µM
[20] = second compound 1 µM, first compound 0.1 µM
[21] = second compound 1 µM, first compound 0.316 µM
[22] = second compound 1 µM, first compound 1 µM
[23] = second compound 1 µM, first compound 3.16 µM
[24] = second compound 1 µM, first compound 10 µM
[25] = second compound 3.16 µM, first compound 0.0316 µM
[26] = second compound 3.16 µM, first compound 0.1 µM
[27] = second compound 3.16 µM, first compound 0.316 µM
[28] = second compound 3.16 µM, first compound 1 µM
[29] = second compound 3.16 µM, first compound 3.16 µM
[30] = second compound 3.16 µM, first compound 10 µM
[31] = second compound 10 µM, first compound 0.0316 µM
[32] = second compound 10 µM, first compound 0.1 µM
[33] = second compound 10 µM, first compound 0.316 µM
[34] = second compound 10 µM, first compound 1 µM
[35] = second compound 10 µM, first compound 3.16 µM
[36] = second compound 10 µM, first compound 10 µM
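Further: spheroids exposed to drugs for 7 days before viability reading.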
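Wherever viability, T/C is given: 100% = DMSO vehicle control viability.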

pIC50 (second compound 0.0316 µM): 5.08
pIC50 (second compound 0.1 µM): 5.13
pIC50 (second compound 0.316 µM): 5.18
pIC50 (second compound 1 µM): 5.30
pIC50 (second compound 3.16 µM): 5.37
pIC50 (second compound 10 µM): > 7.50
SMILES: CCCS(=O)(=O)Nc1ccc(F)c(C(=O)c2c[nH]c3ncc(-c4ccc(Cl)cc4)cc23)c1F + Cc1cnc(CNC(=O)c2c(=O)c3ccc(N4CCCN(C)CC4)nc3n3c2sc2ccccc23)cn1
viability, T/C [1]: 100%
viability, T/C [2]: 90.1%
viability, T/C [3]: 98.1%
viability, T/C [4]: 97.5%
viability, T/C [5]: 78.5%
viability, T/C [6]: 44.4%
viability, T/C [7]: 90.6%
viability, T/C [8]: 85.5%
viability, T/C [9]: 95.7%
viability, T/C [10]: 79.4%
viability, T/C [11]: 83.6%
viability, T/C [12]: 37.5%
viability, T/C [13]: 81.2%
viability, T/C [14]: 84.6%
viability, T/C [15]: 80.1%
viability, T/C [16]: 71.7%
viability, T/C [17]: 71.3%
viability, T/C [18]: 39.5%
viability, T/C [19]: 64.2%
viability, T/C [20]: 65.8%
viability, T/C [21]: 67%
viability, T/C [22]: 61.5%
viability, T/C [23]: 53.3%
viability, T/C [24]: 43.1%
viability, T/C [25]: 57%
viability, T/C [26]: 50.3%
viability, T/C [27]: 62.8%
viability, T/C [28]: 52%
viability, T/C [29]: 55.2%
viability, T/C [30]: 35.8%
viability, T/C [31]: 46.5%
viability, T/C [32]: 27.8%
viability, T/C [33]: 50.4%
viability, T/C [34]: 46.1%
viability, T/C [35]: 24.7%
viability, T/C [36]: 0.21%

pIC50 (second compound 0.0316 µM): < 5.00
pIC50 (second compound 0.1 µM): < 5.00
pIC50 (second compound 0.316 µM): < 5.00
pIC50 (second compound 1 µM): < 5.00
pIC50 (second compound 3.16 µM): < 5.00
pIC50 (second compound 10 µM): > 7.50
SMILES: COc1ncnc(C2CC2)c1-c1ncc2cnn(Cc3ccc(-c4nc(C(F)(F)F)cn4C(C)C)cc3)c2n1 + Cc1cnc(CNC(=O)c2c(=O)c3ccc(N4CCCN(C)CC4)nc3n3c2sc2ccccc23)cn1
viability, T/C [1]: 90.2%
viability, T/C [2]: 90.6%
viability, T/C [3]: 78%
viability, T/C [4]: 90.4%
viability, T/C [5]: 86.9%
viability, T/C [6]: 79%
viability, T/C [7]: 84.4%
viability, T/C [8]: 77.2%
viability, T/C [9]: 74.7%
viability, T/C [10]: 77.1%
viability, T/C [11]: 85%
viability, T/C [12]: 79.2%
viability, T/C [13]: 72%
viability, T/C [14]: 74.2%
viability, T/C [15]: 67.9%
viability, T/C [16]: 79.5%
viability, T/C [17]: 70.2%
viability, T/C [18]: 65.7%
viability, T/C [19]: 62.8%
viability, T/C [20]: 65%
viability, T/C [21]: 65.1%
viability, T/C [22]: 63.1%
viability, T/C [23]: 64%
viability, T/C [24]: 61.9%
viability, T/C [25]: 53.1%
viability, T/C [26]: 59.2%
viability, T/C [27]: 51.6%
viability, T/C [28]: 48.6%
viability, T/C [29]: 59.8%
viability, T/C [30]: 49.9%
viability, T/C [31]: 44.6%
viability, T/C [32]: 25.6%
viability, T/C [33]: 41.5%
viability, T/C [34]: 42.6%
viability, T/C [35]: 40.7%
viability, T/C [36]: 0.28%

pIC50 (second compound 0.0316 µM): 7.35
pIC50 (second compound 0.1 µM): 7.24
pIC50 (second compound 0.316 µM): 7.31
pIC50 (second compound 1 µM): 7.40
pIC50 (second compound 3.16 µM): 7.73
pIC50 (second compound 10 µM): > 9.00
SMILES: Cc1[nH]c2ccccc2c1CCNCc1ccc(/C=C/C(=O)NO)cc1 + Cc1cnc(CNC(=O)c2c(=O)c3ccc(N4CCCN(C)CC4)nc3n3c2sc2ccccc23)cn1
viability, T/C (second compound 0.0316 µM, first compound 0.000999 µM): 103%
viability, T/C (second compound 0.0316 µM, first compound 0.00316 µM): 88.9%
viability, T/C (second compound 0.0316 µM, first compound 0.00999 µM): 83.1%
viability, T/C [1]: 58.4%
viability, T/C (second compound 0.0316 µM, first compound 0.0999 µM): 29.2%
viability, T/C [3]: 2%
viability, T/C (second compound 0.1 µM, first compound 0.000999 µM): 99.9%
viability, T/C (second compound 0.1 µM, first compound 0.00316 µM): 81.8%
viability, T/C (second compound 0.1 µM, first compound 0.00999 µM): 79.7%
viability, T/C [7]: 61.8%
viability, T/C (second compound 0.1 µM, first compound 0.0999 µM): 40.6%
viability, T/C [9]: 2.65%
viability, T/C (second compound 0.316 µM, first compound 0.000999 µM): 83.2%
viability, T/C (second compound 0.316 µM, first compound 0.00316 µM): 73.9%
viability, T/C (second compound 0.316 µM, first compound 0.00999 µM): 67.8%
viability, T/C [13]: 63.3%
viability, T/C (second compound 0.316 µM, first compound 0.0999 µM): 34.3%
viability, T/C [15]: 2.74%
viability, T/C (second compound 1 µM, first compound 0.000999 µM): 65.2%
viability, T/C (second compound 1 µM, first compound 0.00316 µM): 67.5%
viability, T/C (second compound 1 µM, first compound 0.00999 µM): 67.8%
viability, T/C [19]: 48%
viability, T/C (second compound 1 µM, first compound 0.0999 µM): 36.8%
viability, T/C [21]: 0.29%
viability, T/C (second compound 3.16 µM, first compound 0.000999 µM): 49.9%
viability, T/C (second compound 3.16 µM, first compound 0.00316 µM): 54.4%
viability, T/C (second compound 3.16 µM, first compound 0.00999 µM): 54%
viability, T/C [25]: 47.4%
viability, T/C (second compound 3.16 µM, first compound 0.0999 µM): 30.5%
viability, T/C [27]: 0.21%
viability, T/C (second compound 10 µM, first compound 0.000999 µM): 41.9%
viability, T/C (second compound 10 µM, first compound 0.00316 µM): 19.3%
viability, T/C (second compound 10 µM, first compound 0.00999 µM): 43.1%
viability, T/C [31]: 37.8%
viability, T/C (second compound 10 µM, first compound 0.0999 µM): 0.34%
viability, T/C [33]: 0.24%
